# Assay results: patent US7378494B2, “Pituitary adenylate cyclase activating peptide (PACAP) receptor (VPAC2) agonist peptide” (Bayer HealthCare AG, priority 2002, dated 2008)
# Target: T1, VPAC1 (Homo sapiens, UniProt P32241)
# T1 sequence (P32241 31-457): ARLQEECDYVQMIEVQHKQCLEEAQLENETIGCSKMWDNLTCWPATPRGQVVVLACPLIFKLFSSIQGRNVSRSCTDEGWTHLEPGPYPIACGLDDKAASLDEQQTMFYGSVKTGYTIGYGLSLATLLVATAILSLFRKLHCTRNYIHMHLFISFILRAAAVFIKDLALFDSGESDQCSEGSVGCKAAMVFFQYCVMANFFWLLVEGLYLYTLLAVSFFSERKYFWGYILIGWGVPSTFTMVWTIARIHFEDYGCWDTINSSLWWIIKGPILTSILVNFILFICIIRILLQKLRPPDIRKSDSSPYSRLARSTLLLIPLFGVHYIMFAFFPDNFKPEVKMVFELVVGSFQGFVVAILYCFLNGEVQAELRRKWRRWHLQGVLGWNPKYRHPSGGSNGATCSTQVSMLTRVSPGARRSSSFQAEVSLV
# Assay: Cyclic AMP SPA, cells expressing VPAC1
# Format: cell-based
substance,measurement,value
PACAP-27,agonist activity on VPAC1 (in words),potent agonist
